Results as given in PubChem BioAssay AID2060606 (Molecular Pharmacology Branch, DTP, NCI, 2025).

System: 922993-354-T-J3-PDC complex spheroids, viability, % test/control
Experiment: Anticancer human tumor 922993-354-T-J3-PDC patient-derived endometrial carcinoma cell line growth inhibition [CLK]
Conditions: for IC50: curve of first compound; for viability, T/C: stronger effect = lower value
Summary of the method: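 Patient-derived tumor cells grown as complex spheroids with HUVEC endothelial cells and mesenchymal stem cells, treated with drug combinations. Concentrations descend in half-log steps from near clinical Cmax, or from 10 microM if Cmax unknown.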

[1] = second compound 0.0316 µM, first compound 0.0316 µM
[2] = second compound 0.0316 µM, first compound 0.1 µM
[3] = second compound 0.0316 µM, first compound 0.316 µM
[4] = second compound 0.0316 µM, first compound 1 µM
[5] = second compound 0.0316 µM, first compound 3.16 µM
[6] = second compound 0.0316 µM, first compound 10 µM
[7] = second compound 0.1 µM, first compound 0.0316 µM
[8] = second compound 0.1 µM, first compound 0.1 µM
[9] = second compound 0.1 µM, first compound 0.316 µM
[10] = second compound 0.1 µM, first compound 1 µM
[11] = second compound 0.1 µM, first compound 3.16 µM
[12] = second compound 0.1 µM, first compound 10 µM
[13] = second compound 0.316 µM, first compound 0.0316 µM
[14] = second compound 0.316 µM, first compound 0.1 µM
[15] = second compound 0.316 µM, first compound 0.316 µM
[16] = second compound 0.316 µM, first compound 1 µM
[17] = second compound 0.316 µM, first compound 3.16 µM
[18] = second compound 0.316 µM, first compound 10 µM
[19] = second compound 1 µM, first compound 0.0316 µM
[20] = second compound 1 µM, first compound 0.1 µM
[21] = second compound 1 µM, first compound 0.316 µM
[22] = second compound 1 µM, first compound 1 µM
[23] = second compound 1 µM, first compound 3.16 µM
[24] = second compound 1 µM, first compound 10 µM
[25] = second compound 3.16 µM, first compound 0.0316 µM
[26] = second compound 3.16 µM, first compound 0.1 µM
[27] = second compound 3.16 µM, first compound 0.316 µM
[28] = second compound 3.16 µM, first compound 1 µM
[29] = second compound 3.16 µM, first compound 3.16 µM
[30] = second compound 3.16 µM, first compound 10 µM
[31] = second compound 10 µM, first compound 0.0316 µM
[32] = second compound 10 µM, first compound 0.1 µM
[33] = second compound 10 µM, first compound 0.316 µM
[34] = second compound 10 µM, first compound 1 µM
[35] = second compound 10 µM, first compound 3.16 µM
[36] = second compound 10 µM, first compound 10 µM
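Note: spheroids exposed to the agents for 7 days before readout.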

Q: Which results are given for `CC(C)CC(NC(=O)C(Cc1ccccc1)NC(=O)c1cnccn1)B(O)O` (stereo unspecified) + CN1CCN(c2cc(C(=O)Nc3cc4cc(-c5cnn(C)c5)ccc4cn3)ccn2)CC1?
A: IC50 (second compound 0.0316 µM): 6.51 nM; IC50 (second compound 0.1 µM): 6.63 nM; IC50 (second compound 0.316 µM): < 0.949 nM; IC50 (second compound 1 µM): < 0.949 nM; IC50 (second compound 3.16 µM): < 0.949 nM; IC50 (second compound 10 µM): < 0.949 nM; viability, T/C (second compound 0.0316 µM, first compound 0.000949 µM): 103%; viability, T/C (second compound 0.0316 µM, first compound 0.003 µM): 85.5%; viability, T/C (second compound 0.0316 µM, first compound 0.00949 µM): 32.6%; viability, T/C (second compound 0.0316 µM, first compound 0.03 µM): 6.15%; viability, T/C (second compound 0.0316 µM, first compound 0.0949 µM): 1.44%; viability, T/C (second compound 0.0316 µM, first compound 0.3 µM): 1.26%; viability, T/C (second compound 0.1 µM, first compound 0.000949 µM): 94.7%; viability, T/C (second compound 0.1 µM, first compound 0.003 µM): 74.5%; viability, T/C (second compound 0.1 µM, first compound 0.00949 µM): 40.2%; viability, T/C (second compound 0.1 µM, first compound 0.03 µM): 8.34%; viability, T/C (second compound 0.1 µM, first compound 0.0949 µM): 1.08%; viability, T/C (second compound 0.1 µM, first compound 0.3 µM): 1.56%; viability, T/C (second compound 0.316 µM, first compound 0.000949 µM): 50.3%; viability, T/C (second compound 0.316 µM, first compound 0.003 µM): 28.6%; viability, T/C (second compound 0.316 µM, first compound 0.00949 µM): 20.6%; viability, T/C (second compound 0.316 µM, first compound 0.03 µM): 6.46%; viability, T/C (second compound 0.316 µM, first compound 0.0949 µM): 1.39%; viability, T/C (second compound 0.316 µM, first compound 0.3 µM): 0.48%; viability, T/C (second compound 1 µM, first compound 0.000949 µM): 0.16%; viability, T/C (second compound 1 µM, first compound 0.003 µM): 1.6%; viability, T/C (second compound 1 µM, first compound 0.00949 µM): 0.98%; viability, T/C (second compound 1 µM, first compound 0.03 µM): 0.44%; viability, T/C (second compound 1 µM, first compound 0.0949 µM): 0.08%; viability, T/C (second compound 1 µM, first compound 0.3 µM): 0.48%; viability, T/C (second compound 3.16 µM, first compound 0.000949 µM): 0.1%; viability, T/C (second compound 3.16 µM, first compound 0.003 µM): 0.68%; viability, T/C (second compound 3.16 µM, first compound 0.00949 µM): 1%; viability, T/C (second compound 3.16 µM, first compound 0.03 µM): 0.07%; viability, T/C (second compound 3.16 µM, first compound 0.0949 µM): 0.83%; viability, T/C (second compound 3.16 µM, first compound 0.3 µM): 0.79%; viability, T/C (second compound 10 µM, first compound 0.000949 µM): 0.08%; viability, T/C (second compound 10 µM, first compound 0.003 µM): 1.39%; viability, T/C (second compound 10 µM, first compound 0.00949 µM): 0.12%; viability, T/C (second compound 10 µM, first compound 0.03 µM): 0.16%; viability, T/C (second compound 10 µM, first compound 0.0949 µM): 2.52%; viability, T/C (second compound 10 µM, first compound 0.3 µM): 2.16%

Q: Which IC50 (second compound 0.0316 µM) does the source give for `CC1(C)CCC(CN2CCN(c3ccc(C(=O)NS(=O)(=O)c4ccc(NCC5CCOCC5)c([N+](=O)[O-])c4)c(Oc4cnc5[nH]ccc5c4)c3)CC2)=C(c2ccc(Cl)cc2)C1` + CN1CCN(c2cc(C(=O)Nc3cc4cc(-c5cnn(C)c5)ccc4cn3)ccn2)CC1 here?
A: 6610 nM

Q: What about the IC50 (second compound 0.1 µM) of the same compound?
A: 5420 nM

Q: And the IC50 (second compound 0.316 µM)?
A: < 31.6 nM

Q: And the IC50 (second compound 1 µM)?
A: < 31.6 nM

Q: What about the IC50 (second compound 3.16 µM) of the same compound?
A: < 31.6 nM

Q: And the IC50 (second compound 10 µM)?
A: < 31.6 nM

Q: What about the viability, T/C [1] of the same compound?
A: 109%

Q: What about the viability, T/C [2] of the same compound?
A: 109%

Q: And the viability, T/C [3]?
A: 97%

Q: And the viability, T/C [4]?
A: 105%

Q: What about the viability, T/C [5] of the same compound?
A: 112%

Q: What about the viability, T/C [6] of the same compound?
A: 18.2%

Q: What about the viability, T/C [7] of the same compound?
A: 97.1%

Q: And the viability, T/C [8]?
A: 90.4%

Q: What about the viability, T/C [9] of the same compound?
A: 79.8%

Q: What about the viability, T/C [10] of the same compound?
A: 97.7%

Q: What about the viability, T/C [11] of the same compound?
A: 87.1%

Q: And the viability, T/C [12]?
A: 7.76%

Q: And the viability, T/C [13]?
A: 40%

Q: And the viability, T/C [14]?
A: 38%

Q: What about the viability, T/C [15] of the same compound?
A: 39.8%

Q: And the viability, T/C [16]?
A: 32.5%

Q: What about the viability, T/C [17] of the same compound?
A: 29.9%

Q: And the viability, T/C [18]?
A: 1.44%

Q: And the viability, T/C [19]?
A: 0.16%

Q: And the viability, T/C [20]?
A: 0.69%

Q: And the viability, T/C [21]?
A: 0.19%

Q: What about the viability, T/C [22] of the same compound?
A: 0.86%

Q: And the viability, T/C [23]?
A: 1.06%

Q: And the viability, T/C [24]?
A: 0.1%

Q: And the viability, T/C [25]?
A: 0.36%

Q: What about the viability, T/C [26] of the same compound?
A: 0.14%

Q: What about the viability, T/C [27] of the same compound?
A: 0.14%

Q: What about the viability, T/C [28] of the same compound?
A: 0.11%

Q: And the viability, T/C [29]?
A: 2.58%

Q: And the viability, T/C [30]?
A: 1.27%

Q: What about the viability, T/C [31] of the same compound?
A: 0.15%

Q: What about the viability, T/C [32] of the same compound?
A: 0.14%

Q: And the viability, T/C [33]?
A: 1.91%

Q: And the viability, T/C [34]?
A: 0.13%

Q: And the viability, T/C [35]?
A: 0.16%

Q: What about the viability, T/C [36] of the same compound?
A: 2.48%

Q: Which results are given for `CC1COCCN1c1cc(C2(S(C)(=N)=O)CC2)nc(-c2ccnc3[nH]ccc23)n1` (stereo unspecified) + CN1CCN(c2cc(C(=O)Nc3cc4cc(-c5cnn(C)c5)ccc4cn3)ccn2)CC1?
A: IC50 (second compound 0.0316 µM): > 10000 nM; IC50 (second compound 0.1 µM): > 10000 nM; IC50 (second compound 0.316 µM): < 31.6 nM; IC50 (second compound 1 µM): < 31.6 nM; IC50 (second compound 3.16 µM): < 31.6 nM; IC50 (second compound 10 µM): < 31.6 nM; viability, T/C [1]: 122%; viability, T/C [2]: 119%; viability, T/C [3]: 119%; viability, T/C [4]: 120%; viability, T/C [5]: 117%; viability, T/C [6]: 76.3%; viability, T/C [7]: 90.6%; viability, T/C [8]: 111%; viability, T/C [9]: 111%; viability, T/C [10]: 94.6%; viability, T/C [11]: 104%; viability, T/C [12]: 60.7%; viability, T/C [13]: 38.1%; viability, T/C [14]: 45.2%; viability, T/C [15]: 35.9%; viability, T/C [16]: 36.2%; viability, T/C [17]: 27.9%; viability, T/C [18]: 13.3%; viability, T/C [19]: 0.12%; viability, T/C [20]: 0.14%; viability, T/C [21]: 1.67%; viability, T/C [22]: 0.14%; viability, T/C [23]: 0.12%; viability, T/C [24]: 0.08%; viability, T/C [25]: 0.13%; viability, T/C [26]: 0.13%; viability, T/C [27]: 0.16%; viability, T/C [28]: 0.94%; viability, T/C [29]: 1.11%; viability, T/C [30]: 0.87%; viability, T/C [31]: 0.78%; viability, T/C [32]: 0.17%; viability, T/C [33]: 1.4%; viability, T/C [34]: 0.2%; viability, T/C [35]: 0.94%; viability, T/C [36]: 1.78%
